Results published in patent publication US20050288488A1, “Ah receptor cDNA and genetically engineered cells for detecting agonists to the Ah receptor” (Northwestern University, priority 1993, published 2005).

How the values were obtained:
[1] = target: full-length human AHR (Homo sapiens, UniProt P35869, F659I); details: for activation of the AHR over background (β-galactosidase): yeast A303 AHR/ARNT/DRE system, average of at least three independent experiments
Description: S. cerevisiae strain A303 (Mata, ura3-52, trpIΔI, his3Δ200, leu2Δ1) was used as a host to transform the AHR, ARNT, and the lacZ reporter gene driven by two DREs. […] To construct the pCWhuAHR, the full-length human AHR was excised from plasmid phμAHR2, (See Dolwick, K. M., Schmidt, J. V., Carrer, L. A., Swanson, H. I., and Bradfield, C. A. (1993) Mol. Pharmacol. 44, 911-917), with XmaI and cloned into the corresponding site of pCW10. pY2ARNT was constructed by digesting plasmid pBM5/NEO-M1-1 with BamHI and subcloning the ARNT fragment into the corresponding site of the expression vector pYPGE2, a 2 μ, TRP1-marked plasmid containing a phosphoglycerate kinase promoter to drive expression. […] The reporter plasmid pDRE23-Z was constructed by first subcloning the HindIII/EcoRI fragment of pGEMLS3.2, (See Denison, M. S., Fisher, J. M., and Whitlock, J. P. J. (1988) Proc. Natl. Acad. Sci. U.S.A. 85, 2528-2532), containing DRE2-DRE3 into pBluescriptSK (Stratagene) to generate pSKDRE23. The DRE2-DRE3 fragment was subsequently amplified by polymerase chain reaction from pSKDRE23 using 50 pmol of primers OL146 (5′-[sequence]-3′ SEQUENCE ID NO. 24) and OL290 (5′-[sequence]-3′ SEQUENCE ID NO. 25) in a 50-μl reaction containing 200 μm each dNTP, 2 mM MgCl2 10 mm Tris, 50 mM KCl, 0.001% gelatin (w\v). The reaction was incubated at 95° C. for 5 minutes, then 72° C. for 5 minutes during which 2.5 units of Taq polymerases were added and the reaction continued at 95° C. (1 minute) then 50° C. (1 minute) and then 72° C. (1 minute) for 25 cycles.
Plasmids were sequentially transformed into the appropriate yeast strain by electroporation, (See Becker, D. M., and Guarente, L. (1991) Methods of Enzymol. 194, 182-187), or by a modified LiAc method (See Schiestl, R. H., and Giest, R. D. (1989) Curr. Genet. 16, 339-346). For electroporation, 100-500 ng of plasmid DNA was added to 50 μl or electrocompetent cells and incubated on ice for 5 minutes.

[2] = test system: AHR; details: reported, Knutson and Poland (1981); read-out: AHR binding constants (KD values); cited from earlier work
[3] = target: T1, AHR-LexA chimera (UniProt P0A7C2+P30561); assay type: cell-based; details: for induction of lac Z activity over background: yeast GRS4 chimeric AHR-LexA system, average
T1 construct: expressed in transfected cells; host or cells: Saccharomyces cerevisiae strain GRS4 (with pTT8/hsp82) transformed with pEGAHRNΔ166 and pSH18-34
Description: Poon, D., Schroeder, S., Wang, C. […] Biol. 11, 4809-4821. […] (1 minute) then 50° C. (1 minute) and then 72° C. (1 minute) for 25 cycles.
β-Galactosidase assays carried out on the AHR-LexANΔ166 chimera system were performed as above except for the following changes. Yeast strains were grown from a single colony overnight at 30° C. in 2 ml of selection medium containing either 2% glucose or 2% galactose as a carbon source. Fifty microliters of this primary culture was used to inoculate a 1-ml culture of the same media containing appropriate concentrations of agonist dissolved in Me2SO. The culture was grown for 16-18 hours with vigorous shaking at room temperature. β-Galactosidase activity was determined by adding a 50-μl aliquot of the cultures to 650 μl of Z-buffer, permeabilizing the cells, and incubating with ONPG at 30° C. for 30 minutes. β-Galactosidase units were determined using the following formula: (A420)/(A600 of 1/10 dilution of cells×volume of culture×length of incubation))×1000.
As described above, strain GRS4 was transformed with a AHR-LexAN 166 fusion plasmid, pEGAHRNΔ166 containing the chimeric Ah receptor and a LexA operator reporter plasmid pSH18-34. In this system, expression of the reporter gene was dependent on pEGAHRNΔ166 expresson and on the presence of agonist. […] The dose-response curves obtained from this chimeric receptor system closely paralleled those of the complete AHR/ARNT/DRE pathway expressed in A303 cells.

[4] = target: T2, murine Ah-receptor (Mus musculus, UniProt P30561); experiment: photoaffinity labeling with [125I]-2-azido-3-iodo-7,8-dibromodibenzo-p-dioxin, competition by agonist; assay type: binding; details: excess of β-naphthoflavone; murine cDNA expressed in COS-1 cells, cytosolic fraction
T2 construct: The resulting full length murine Ah-receptor clone was then subcloned into the SpeI and HindIII sites of pSV-Sport1; expressed in transfected cells; host or cells: COS-1 cells electroporated with pmuAhR (cytosol); also in vitro translation in TNT rabbit reticulocyte lysate (Promega)
T2 sequence (P30561 10-805 S74T/M324I/F348L/P471L/N533S/M589L/T758A limits assumed): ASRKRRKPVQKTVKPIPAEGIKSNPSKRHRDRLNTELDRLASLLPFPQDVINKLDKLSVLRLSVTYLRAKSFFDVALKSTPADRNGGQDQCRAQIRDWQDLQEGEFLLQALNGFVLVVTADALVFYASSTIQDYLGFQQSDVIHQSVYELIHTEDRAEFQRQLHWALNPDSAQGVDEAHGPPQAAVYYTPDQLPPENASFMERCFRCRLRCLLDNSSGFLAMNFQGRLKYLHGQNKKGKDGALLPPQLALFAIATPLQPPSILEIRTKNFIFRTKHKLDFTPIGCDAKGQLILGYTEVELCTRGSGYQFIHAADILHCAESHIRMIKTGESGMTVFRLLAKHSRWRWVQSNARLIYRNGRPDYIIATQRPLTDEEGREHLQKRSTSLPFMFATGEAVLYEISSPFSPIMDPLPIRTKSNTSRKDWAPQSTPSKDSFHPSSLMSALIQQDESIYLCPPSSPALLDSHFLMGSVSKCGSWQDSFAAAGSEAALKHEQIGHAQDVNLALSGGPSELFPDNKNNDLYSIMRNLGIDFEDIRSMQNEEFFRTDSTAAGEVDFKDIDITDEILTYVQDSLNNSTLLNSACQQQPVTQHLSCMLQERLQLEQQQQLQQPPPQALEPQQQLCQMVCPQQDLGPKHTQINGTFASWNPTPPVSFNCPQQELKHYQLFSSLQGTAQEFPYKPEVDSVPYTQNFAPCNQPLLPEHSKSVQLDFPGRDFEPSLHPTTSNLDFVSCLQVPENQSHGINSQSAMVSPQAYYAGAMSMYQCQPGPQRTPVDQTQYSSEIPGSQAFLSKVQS
Description: (§1) Photoaffinity labeling using the ligand, [^125I]-2-azido-3-iodo-7,8-dibromodibenzo-p-dioxin (specific activity=0.5 μCiμl), was carried out in 50 μl reactions in MENG buffer. Samples were incubated with 0.25 μCi of ligand (0.1 pmoles) ±100 nM β-naphthoflavone 30 minutes at room temperature, cooled on ice and incubated with one fifth of charcoal/gelatin (3%/0.3% w/v) for 30 minutes on ice. The charocal/gelatin was subjected to centrifugation at 14,000 rpm for 5 minutes at 4° C. and the supernatant was irradiated with ultraviolet light at 0.8 J/cm2 followed by addition of 300 mM β-mercaptoethanol. Acetone precipitates were resuspended in 1×Laemmli sample buffer and subjected to 7.5% SDS-PAGE and autoradiograph as described in Sambrook, J., Fritsch, E. F., Maniatis, T., Molecular Cloning: A Laboratory Manual/second edition (Cold Spring Harbor Laboratory Press, 1989).
(§2) Photoaffinity labeling of murine (muAhR) and human (huAhR) Ah-receptors expressed in COS-1 cells. […]
(§3) Experiments were carried out using the TNT Coupled Reticulocyte Lysate System (PROMEGA). […] The efficiency of expression was analyzed in parallel experiments utilizing ^35S-methionine labeling and autoradiography and Western blot analysis using affinity-purified goat antibody raised against an N-terminal peptide derived from the murine Ah-receptor. […]

[5] = target: T3, human Ah-receptor (Homo sapiens, UniProt P35869, F659I); experiment: as above; assay type: binding; details: excess of β-naphthoflavone; human cDNA expressed in COS-1 cells, cytosolic fraction
T3 construct: 102 nucleotides downstream of the stop codon of the full length human Ah-receptor cDNA clone; expressed in transfected cells; host or cells: COS-1 cells electroporated with phuAhR (cytosol, 10 mM molybdate); also in vitro translation in TNT rabbit reticulocyte lysate (Promega)
T3 sequence (P35869 11-848 F659I): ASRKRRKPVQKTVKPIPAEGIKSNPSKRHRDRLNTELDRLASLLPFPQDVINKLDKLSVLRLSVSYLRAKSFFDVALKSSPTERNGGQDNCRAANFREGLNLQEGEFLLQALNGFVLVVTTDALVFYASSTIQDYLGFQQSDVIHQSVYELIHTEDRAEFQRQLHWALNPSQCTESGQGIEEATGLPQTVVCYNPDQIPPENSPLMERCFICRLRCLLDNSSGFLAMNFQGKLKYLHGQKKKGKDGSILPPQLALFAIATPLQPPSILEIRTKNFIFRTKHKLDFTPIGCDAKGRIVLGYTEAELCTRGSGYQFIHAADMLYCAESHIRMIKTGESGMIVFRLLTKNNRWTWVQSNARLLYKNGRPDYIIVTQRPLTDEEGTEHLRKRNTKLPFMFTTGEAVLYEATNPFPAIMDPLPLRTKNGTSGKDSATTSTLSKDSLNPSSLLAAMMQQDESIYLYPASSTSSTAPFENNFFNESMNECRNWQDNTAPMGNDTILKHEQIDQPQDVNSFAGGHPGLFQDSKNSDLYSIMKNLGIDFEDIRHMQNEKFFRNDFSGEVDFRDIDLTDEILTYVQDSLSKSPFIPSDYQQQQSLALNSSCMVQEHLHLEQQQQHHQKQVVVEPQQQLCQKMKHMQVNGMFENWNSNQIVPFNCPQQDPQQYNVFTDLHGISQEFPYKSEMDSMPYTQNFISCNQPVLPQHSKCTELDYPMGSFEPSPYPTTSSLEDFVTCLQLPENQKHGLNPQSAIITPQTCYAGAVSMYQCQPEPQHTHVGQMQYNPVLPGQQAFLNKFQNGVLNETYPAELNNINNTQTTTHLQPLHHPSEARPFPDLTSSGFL
Description: as §1, §2, §3

T1 sequence (P0A7C2+P30561 fused with the stated changes): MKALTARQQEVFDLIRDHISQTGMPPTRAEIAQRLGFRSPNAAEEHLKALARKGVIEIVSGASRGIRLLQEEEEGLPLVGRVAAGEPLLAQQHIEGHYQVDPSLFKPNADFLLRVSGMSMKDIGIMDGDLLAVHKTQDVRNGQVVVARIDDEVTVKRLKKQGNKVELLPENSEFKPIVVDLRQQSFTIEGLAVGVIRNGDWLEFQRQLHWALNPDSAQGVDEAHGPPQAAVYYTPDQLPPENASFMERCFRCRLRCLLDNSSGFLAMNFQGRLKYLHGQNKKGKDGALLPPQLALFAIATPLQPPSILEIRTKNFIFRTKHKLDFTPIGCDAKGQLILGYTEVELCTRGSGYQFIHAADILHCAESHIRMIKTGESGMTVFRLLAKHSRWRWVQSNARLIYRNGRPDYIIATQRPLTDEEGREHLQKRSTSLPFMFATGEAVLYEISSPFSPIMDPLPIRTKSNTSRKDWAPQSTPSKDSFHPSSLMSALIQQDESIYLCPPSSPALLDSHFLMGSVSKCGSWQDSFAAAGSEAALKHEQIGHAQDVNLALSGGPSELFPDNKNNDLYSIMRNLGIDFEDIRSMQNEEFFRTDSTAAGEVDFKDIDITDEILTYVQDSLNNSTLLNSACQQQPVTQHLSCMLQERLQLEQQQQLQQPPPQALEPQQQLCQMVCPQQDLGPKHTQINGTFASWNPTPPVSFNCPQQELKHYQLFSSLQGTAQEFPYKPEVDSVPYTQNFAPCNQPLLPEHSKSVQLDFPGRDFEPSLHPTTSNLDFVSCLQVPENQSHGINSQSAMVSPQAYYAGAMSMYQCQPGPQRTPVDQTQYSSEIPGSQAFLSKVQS
Chain of full-length human AHR (P27540 1-774 isoform P27540-2 partner, one chain of several): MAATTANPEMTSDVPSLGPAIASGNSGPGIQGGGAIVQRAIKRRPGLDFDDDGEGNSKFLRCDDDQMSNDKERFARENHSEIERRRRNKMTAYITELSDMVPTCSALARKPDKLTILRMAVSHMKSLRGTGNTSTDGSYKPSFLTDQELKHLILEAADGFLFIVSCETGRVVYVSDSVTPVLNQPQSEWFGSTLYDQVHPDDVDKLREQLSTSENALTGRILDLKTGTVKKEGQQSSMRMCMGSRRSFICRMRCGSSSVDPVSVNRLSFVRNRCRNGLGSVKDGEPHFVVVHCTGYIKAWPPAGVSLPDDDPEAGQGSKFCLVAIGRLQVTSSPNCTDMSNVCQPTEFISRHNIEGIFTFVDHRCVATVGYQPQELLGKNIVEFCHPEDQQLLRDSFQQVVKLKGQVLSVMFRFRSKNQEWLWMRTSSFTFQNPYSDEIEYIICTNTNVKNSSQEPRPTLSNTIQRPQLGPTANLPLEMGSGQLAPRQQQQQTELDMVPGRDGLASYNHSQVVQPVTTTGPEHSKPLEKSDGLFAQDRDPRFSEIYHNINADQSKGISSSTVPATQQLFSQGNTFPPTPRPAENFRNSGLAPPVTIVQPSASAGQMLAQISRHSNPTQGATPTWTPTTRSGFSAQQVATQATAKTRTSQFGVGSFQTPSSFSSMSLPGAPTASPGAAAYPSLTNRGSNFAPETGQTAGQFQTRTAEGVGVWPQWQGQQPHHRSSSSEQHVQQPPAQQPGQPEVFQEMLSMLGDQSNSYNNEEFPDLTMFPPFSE

Row | SMILES | EC50 [1] [nM] | activation of the AHR over background (β-galactosidase) [1] [fold] | Kd [2] [nM] | induction of lac Z activity over background [3] [fold] | inhibition of photoaffinity labeling of the receptor [4] | inhibition of photoaffinity labeling of the receptor [5] | EC50 ([3]; yeast GRS4 with pEGAHRNΔ166 and pSH18-34, agonist 16-18 hours, read-out: EC50 (LexA operator lacZ reporter)) [nM]
1 | O=c1cc(-c2ccccc2)oc2c1ccc1ccccc12 [αNF, α-naphthoflavone] | 800 | 12 | 29 | 90 | – | – | –
2 | O=c1cc(-c2ccccc2)oc2ccc3ccccc3c12 [βNF, β-naphthoflavone] | 79 | 12 | […] | 90 | inhibited the labeling of the receptors | inhibited the labeling of the receptors | 61
